≈ marks a conversion by molar mass, not a printed value.
Conditions: buffer; pH 7.4; 200.0 µM

Row | SMILES | solubility kinetic [µg/mL]
1 | CC(C)NCC#CCOc1ccc(Cl)cc1.O=C(O)C(=O)O | 42.6
2 | O=C(COc1ccc(C(=O)c2ccccc2)cc1)Nc1cccnc1 | > 49.9
3 | Cc1ccc(O)c(NC(=O)Cc2ccc3ccccc3c2)c1 | 6.5 (≈ 22.3 µM)
4 | CCn1cc(S(=O)(=O)N2CCCC2)cn1 | > 34.4
5 | Cc1ccc(CNC(=O)c2cc(Cl)cc(Cl)c2)n1C | 11.1 (≈ 37.4 µM)
6 | Cc1ccc(NS(=O)(=O)c2ccc3c(c2)n(C)c(=O)n3C)c(C)c1 | 17.9 (≈ 51.8 µM)
7 | O=c1cc(NCCc2ccccc2)c2ccccc2o1 | 1.1 (≈ 4.15 µM)
8 | CN(CC(=O)NCc1ccco1)CC(=O)Nc1ccc(F)c(F)c1F | 45.2 (≈ 127 µM)
9 | COc1ccc(NC(=O)c2ccccc2NC(=O)c2cccs2)cc1 | < 0.4
10 | CCc1ccccc1NC(=O)CN(C)Cc1c(O)ccc2ccccc12 | 22.8 (≈ 65.4 µM)
11 | Cc1cccc(NC(=O)c2ccc(Cl)nc2)n1 | > 37.2
12 | CNn1cnc2ccsc2c1=O | > 27.2
13 | COc1ccc(C(=O)OCC(=O)c2ccc[nH]2)cc1 | 20.4 (≈ 78.7 µM)
14 | Cn1c(N)c(C(=O)COC(=O)CNC(=O)c2ccc(Cl)cc2Cl)c(=O)n(C)c1=O | 10.2 (≈ 23 µM)
15 | COc1ccc(C(NC(=O)CC(C)C)c2c(O)ccc3ccccc23)cc1 (stereo not drawn) | < 0.8
16 | Cc1cc(C(=O)COC(=O)/C=C/c2ccco2)c(C)n1C | 12.9 (≈ 44.9 µM)

Row | SMILES | solubility kinetic [µg/mL]
17 | CCOc1ccc(NC(=O)CN2C(=O)NC3(CCCCCC3)C2=O)cc1 | > 53.9
18 | Cc1cc(C)c(C)c(S(=O)(=O)N[C@@H](C)C(=O)OCC(=O)NC2CCCC(C)C2C)c1C (stereo partly drawn) | 27.8 (≈ 61.4 µM)
19 | COc1cc2[nH]c(=S)n(Cc3cccs3)c(=O)c2cc1OC | < 0.4
20 | CCOc1cc(C(=O)OCC(=O)Nc2cccc(S(=O)(=O)NC3=NCCCCC3)c2)cc(OCC)c1OCC | 24.2 (≈ 43.1 µM)
21 | COc1ccc(C(C)=O)cc1CN1CC=C(c2ccccc2)CC1 | 28.8 (≈ 89.6 µM)
22 | COC(=O)c1cc(Sc2cccc(Cl)c2Cl)ccn1 | 26.3 (≈ 83.7 µM)
23 | CCOC(=O)/C=C/C(=O)OCC(=O)Nc1ccc(Cl)cc1Cl | 8.8 (≈ 25.4 µM)
24 | O=C(Cc1nc(-c2cnccn2)no1)NNC(=O)Nc1ccccc1 | > 50.9
25 | COCC(C)n1c(C)cc(C(=O)COC(=O)c2cnc(Cl)c(Cl)c2)c1C (stereo not drawn) | 34 (≈ 85.2 µM)
26 | CN(C)CCCNC(=S)Nc1ccc(-c2ccccc2)cc1 | 42.8 (≈ 137 µM)
27 | O=C(Nc1ccc(Cl)cc1Cl)c1csc(-c2cccnc2)n1 | 1.6 (≈ 4.57 µM)
28 | COCC(=O)N(Cc1nc2sc(C)c(C)c2c(=O)[nH]1)C1CCCCC1 | 47.4 (≈ 130 µM)
29 | O=C(c1ccc2ccccc2n1)N(CCO)Cc1ccccc1 | 41.4 (≈ 135 µM)
30 | COc1ccc(/C=C/C(=O)NCCCN2CCCC2)cc1 | > 43.3
31 | Cn1c(N)c(S(=O)(=O)N2CCCC2)c(=O)n(C)c1=O | > 43.2

The remaining lines, values ahead:

Row | solubility kinetic [µg/mL] | SMILES
32 | > 49.9 | CCOc1cccc(-c2nnc(SCC(=O)NC3CC3)n2C)c1
33 | > 42.8 | Cc1ccccc1NC(=O)C(C)SCc1ccccc1 (stereo not drawn)
34 | 2.1 (≈ 8.06 µM) | CC1=CC(C)(C)NC(=S)N1c1ccc(C)c(C)c1
35 | > 45.8 | CC1CCc2c(sc(NC(=O)c3ccco3)c2C(=O)O)C1 (stereo not drawn)
36 | 45.9 (≈ 122 µM) | COc1ccc(C(=O)CN2CCN(c3cc(C)nc4ccccc34)CC2)cc1
37 | 35.8 (≈ 115 µM) | O=C(/C=C/c1ccccc1F)N1CCN(c2ccccn2)CC1
38 | > 45.3 | CC1C(=O)Nc2ccccc2N1C(=O)c1ccc(F)cc1F (stereo not drawn)
39 | 3.1 (≈ 9.11 µM) | CC(=O)c1ccc(NC(=S)N2CCN(c3ccccn3)CC2)cc1
40 | 2.2 (≈ 4.76 µM) | CC1CCC2(CC1)NC(=O)N(CC(=O)Nc1cccc(S(=O)(=O)N3CCCCC3)c1)C2=O (stereo not drawn)
41 | 26.8 (≈ 69.2 µM) | FC(F)(F)c1ccnc(N2CCN(Cc3cnc(-c4ccccc4)[nH]3)CC2)c1
42 | 30 (≈ 126 µM) | N#Cc1ccc(COC(=O)c2ccccn2)cc1
43 | 0.6 (≈ 1.78 µM) | COc1ccc(/C=C/c2noc(-c3ccccc3OC(C)=O)n2)cc1
44 | 36.2 (≈ 115 µM) | O=C(c1ccc(F)cc1)C1CCN(Cc2ccc(F)cc2)CC1
45 | > 41 | Cc1nn(C)cc1C(=O)Nc1ccc2c(c1)OCCO2
46 | > 45.5 | Cc1cccc(C(=O)OCC(=O)N2CC(C)CC(C)C2)c1C (stereo not drawn)
47 | 10.1 (≈ 33.6 µM) | COc1ccc(/C=C(\C#N)C(=O)OCC(=O)NC2CC2)cc1
48 | > 50.6 | CCOC(=O)N1CCC(NS(=O)(=O)c2ccc(C#N)cc2)CC1
49 | > 39.5 | CCc1ccc(NC(=S)N2CCN(C)CC2)cc1
50 | 1.5 (≈ 4.64 µM) | CCOC(=O)C1CCCCN1Cc1ccc(-c2ccccc2)cc1 (stereo not drawn)
51 | 2.8 (≈ 8.71 µM) | Cc1cc(CNC(=O)c2cccc([N+](=O)[O-])c2)c2ccccc2n1
52 | < 0.2 | Cc1ccccc1-c1nc(C#N)c(N2CCC(C)CC2)o1
53 | > 50 | Cc1cc([N+](=O)[O-])ccc1NC(=O)CCC(=O)N1CCCCCC1
54 | > 34.7 | Cc1cc(C)nc(NC(=O)c2ccc(C)o2)n1
55 | 1 (≈ 2.92 µM) | COc1ccc(OCCN2C(=O)c3ccccc3C2=O)c([N+](=O)[O-])c1
56 | 0.7 (≈ 2.2 µM) | COc1ccc(NC(=O)Nc2ccccc2SC)c(OC)c1
57 | 41.6 (≈ 133 µM) | O=C(CCc1ccccc1F)N1CCN(c2ccccc2)CC1
58 | > 50.1 | O=C(O)c1ccc2c(=O)n3c(nc2c1)/C(=C/c1cccc(O)c1)CC3
